Data taken from US6642251B1, “Geometrically restricted 2-indolinone derivatives as modulators of protein kinase activity” (Sugen, Inc., priority 1998, dated 2003).
pIC50: −log10 of the molar value.

Legend:
PDGFR = biological target: T1, PDGFR (Homo sapiens, UniProt P09619); assay: Biochemical PDGFR assay (bio PDGFR), ELISA; conditions: 50% inhibition of target PTK activity; read-out: bio PDGFR IC50
T1 construct: expressed in transfected cells; host or cells: NIH 3T3
Description: This assay measures the in vitro kinase activity of PDGFR using ELISA.
6. PDGFR-β expressing NIH 3T3 cell lysate (Screening Lab, SUGEN, Inc.).
1. Coat Corning 96 well ELISA plates with 0.5 μg 28D4C10 in 100 μl PBS per well, store overnight at 4° C.
2. Remove unbound 28D4C10 from wells by inverting plate to remove liquid. Wash 1× with dH2O. Pat the plate on a paper towel to remove excess liquid.
(§1) 3. Add 150 μl of Blocking Buffer to each well. Incubate for 30 min. at room temperature with shaking.
(§2) 4. Wash plate 3× with deionized water, then once with TBST. Pat plate on a paper towel to remove excess liquid and bubbles.
5. Dilute lysate in HNTG (10 μg lysate/100 μl HNTG)
(§3) 6. Add 100 μl of diluted lysate to each well. Shake at room temperature for 60 min.
(§4) 7. Wash plates as described in 4, above.
8. Add 80 μl working kinase buffer mix to ELISA plate containing captured PDGFR.
10. Add 10 μl diluted test compound to ELISA plate.
(§5) 11. Incubate for 30 minutes while shaking at room temperature.
12. Add 10 μl ATP directly to all wells except negative control well (final well volume should be approximately 100 μl with 20 μM ATP in each well.) Incubate 30 minutes while shaking.
13. After 30 minutes, stop reaction by adding 10 μl of 200 mM EDTA (pH 8.0) to each well.
(§6) 14. Wash 4× with deionized water, twice with TBST.
15. Add 100 μl anti-phosphotyrosine (1:3000 dilution in TBST) per well. Incubate 30-45 min. at room temperature, with shaking.
(§7) 16. Wash as described in 4, above.
17. […] Incubate 30 min. at room temperature, with shaking.
(§8) 18. Wash as described in 4, above.
(§9) 19. Add 100 μl of ABTS/H2O2 solution to each well.
20. Incubate 10 to 30 minutes with shaking. Remove any bubbles.
(§10) 21. If necessary stop reaction with the addition of 100 μl 0.2 M HCl per well.

src protein kinase = biological target: T2, src protein kinase (Gallus gallus, UniProt P00523); assay: Biochemical src assay (bio SRC); on bio SRC, outcome of primary assay: key: DNH = did not hit in primary assay
T2 construct: made in house; host or cells: Schizosaccharomyces pombe strain SP200
Description: This assay is used to determine src protein kinase activity measuring phosphorylation of a biotinylated peptide as the readout.
a. Yeast transformed with src (Sugen, Inc., Redwood City, Calif.).
1. Coat ELISA plate with 0.5 μg/well anti-src mab in 100 μl of pH 9.6 sodium carbonate buffer; hold at 4° C. overnight.
2. Wash wells once with PBS.
3. Block plate with 0.15 ml 5% milk in PBS for 30 min. at room temperature.
4. Wash plate 5× with PBS.
5. Add 10 μg/well of src transformed yeast lysates diluted in Lysis Buffer (0.1 ml total volume per well). (Amount of lysate may vary between batches.) Shake plate for 20 minutes at room temperature.
1. 4G10 plate: coat 0.5 μg/well 4G10 in 100 μl PBS overnight at 4° C. and block with 150 μl of 5% milk in PBS for 30 minutes at room temperature.
1. Remove unbound proteins.from plates and wash plates 5× with PBS.
2. Add 0.08 ml Kinase Reaction Mixture per well (containing 10 μl of 10×-Kinase Buffer and 10 μM (final concentration) biotin-EEEYEEYEEEYEEEYEEEY per well diluted in water.
3. Add 10 μl of compound diluted in water containing 10% DMSO and pre-incubate for 15 minutes at room temperature.
4. Start kinase reaction by adding 10 μl/well of 0.05 mM ATP in water (5 μM ATP final).
5. Shake ELISA plate for 15 min. at room temperature.
6. Stop kinase reaction by adding 10 μl of 0.5 M EDTA per well.
7. Transfer 90 μl supernatant to a blocked 4G10 coated ELISA plate.
8. Incubate for 30 min. while shaking at room temperature.
9. Wash plate 5× with TBST.
10. Incubate with Vectastain ELITE ABC reagent (100 μl/well) for 30 min. at room temperature.
11. Wash the wells 5× with TBST.
12. Develop with Turbo TMB.

Pyk2 = Pyk2 (Homo sapiens, UniProt Q14289); assay: Pyk2 assay; type: biochemical; on Pyk2, outcome of primary assay: key: DNH = did not hit in primary assay
EGFR = EGFR (Homo sapiens, UniProt P00533); assay: Biochemical EGFR assay (bio EGFR), ELISA; parameters: A431 cell lysate (Screening Lab, SUGEN, Inc.); endogenous in cells; host or cells: A431; conditions: 50% inhibition of target PTK activity; read-out: bio EGFR (Page 5) IC50
Description: This assay measures the in vitro kinase activity of EGFR using ELISA.
6. A431 cell lysate (Screening Lab, SUGEN, Inc.)
1. Coat Corning 96 well ELISA plates with 0.5 μg […] in
100 μl PBS per well, store overnight at 4° C.
2. Remove unbound SUMO1 from wells by inverting plate to remove liquid. Wash 1× with dH2O. Pat the plate on a paper towel to remove excess liquid.
as §1, §2
5. Dilute lysate in PBS (7 μg lysate/100 μl PBS).
as §3, §4
8. Add 120 μl TBS to ELISA plate containing captured EGFR.
9. Dilute test compound 1:10 in TBS in 96-well polypropylene plates (ie. 10 μl compound+90 μl TBS).
10. Add 13.5 μl diluted test compound to ELISA plate.
as §5
13. After 5 minutes, stop reaction by adding 16.5 μl of 200 mM EDTA (pH 8.0) to each well, shaking continuously. After the EDTA has been added, shake for 1 min.
as §6
15. Add 100 μl anti-phosphotyrosine (1:3000 dilution.in TBST) per well. Incubate 30-45 min. at room temperature, with shaking.
as §7
17. Add 100 μl Biosource Goat anti-rabbit IgG peroxidase conjugate (1:2000 dilution in TBST) to each well. Incubate 30 min. at room temperature, with shaking.
as §8, §9
20. Incubate 5 to 10 minutes with shaking. Remove any bubbles.
as §10
22. Read assay on Dynatech MR7000 ELISA reader. Test Filter: 410 nM Reference Filter: 630 nM

IGF-1 receptor = biological target: T3, IGF-1 receptor (Homo sapiens, UniProt P08069); assay: Cellular IGF-1 receptor assay (cell IGF); type: cell-based; on cell IGF, outcome of primary assay: key: DNH = did not hit in primary assay
T3 construct: expressed in transfected cells; host or cells: NIH3T3/IGF-1R
Description: The following protocol may be used to measure phosphotyrosine level on IGF-1 receptor, which indicates IGF-1 receptor tyrosine kinase activity.
a. The cell line used in this assay is 3T3/IGF-1R, a cell line genetically engineered to overexpresses IGF-1 receptor.
2. […] Incubate for 1 day then replace medium to serum-free medium (90/μl) and incubate in 5% CO2 and 37° C. overnight.
2. Remove the coating solution, and replace with 100 μl Blocking Buffer, and shake for 30 minutes. Remove the blocking buffer and wash the plate just before adding lysate.
1. The drugs are tested under serum-free condition.
2. Dilute drug stock (in 100% DMSO) 1:10 with DMEM in 96-well poly-propylene plate, and transfer 10 μl/well of this solution to the cells to achieve final drug dilution 1:100, and final DMSO concentration of 1.0%. Incubate the cells in 5% CO2 at 37° C. for 2 hours.
3. Prepare fresh cell lysis buffer (HNTG*)
4. After drug incubation for two hours, transfer 10 μl/well of 200 nM IGF-1 Ligand in PBS to the cells (Final Conc. is 20 nM), and incubate at 5% CO2 at 37° C. for 10 minutes.
5. Remove media and add 100 μl/well HNTG* and shake for 10 minutes. Look at cells under microscope to see if they are adequately lysed.
6. Use a 12-channel pipette to scrape the cells from the plate, and homogenize the lysate by repeated aspiration and dispensing. Transfer all the lysate to the antibody coated ELISA plate, and shake for 1 hour.
7. Remove the lysate, wash the plate, transfer anti-pTyr (1:3,000 with TBST) 100 μl/well, and shake for 30 minutes.
8. Remove anti-pTyr, wash the plate, transfer TAGO (1:3,000 with TBST) 100 μl/well, and shake for 30 minutes.
9. Remove detection antibody, wash the plate, and transfer fresh ABTS/H2O2 (1.2 μl H2O2 to 10 ml ABTS) 100 μl/well to the plate to start color development.
10. Measure OD at 410 nm with a reference wavelength of 630 nm in Dynatec MR5000.

T3 sequence (P08069 31-1367): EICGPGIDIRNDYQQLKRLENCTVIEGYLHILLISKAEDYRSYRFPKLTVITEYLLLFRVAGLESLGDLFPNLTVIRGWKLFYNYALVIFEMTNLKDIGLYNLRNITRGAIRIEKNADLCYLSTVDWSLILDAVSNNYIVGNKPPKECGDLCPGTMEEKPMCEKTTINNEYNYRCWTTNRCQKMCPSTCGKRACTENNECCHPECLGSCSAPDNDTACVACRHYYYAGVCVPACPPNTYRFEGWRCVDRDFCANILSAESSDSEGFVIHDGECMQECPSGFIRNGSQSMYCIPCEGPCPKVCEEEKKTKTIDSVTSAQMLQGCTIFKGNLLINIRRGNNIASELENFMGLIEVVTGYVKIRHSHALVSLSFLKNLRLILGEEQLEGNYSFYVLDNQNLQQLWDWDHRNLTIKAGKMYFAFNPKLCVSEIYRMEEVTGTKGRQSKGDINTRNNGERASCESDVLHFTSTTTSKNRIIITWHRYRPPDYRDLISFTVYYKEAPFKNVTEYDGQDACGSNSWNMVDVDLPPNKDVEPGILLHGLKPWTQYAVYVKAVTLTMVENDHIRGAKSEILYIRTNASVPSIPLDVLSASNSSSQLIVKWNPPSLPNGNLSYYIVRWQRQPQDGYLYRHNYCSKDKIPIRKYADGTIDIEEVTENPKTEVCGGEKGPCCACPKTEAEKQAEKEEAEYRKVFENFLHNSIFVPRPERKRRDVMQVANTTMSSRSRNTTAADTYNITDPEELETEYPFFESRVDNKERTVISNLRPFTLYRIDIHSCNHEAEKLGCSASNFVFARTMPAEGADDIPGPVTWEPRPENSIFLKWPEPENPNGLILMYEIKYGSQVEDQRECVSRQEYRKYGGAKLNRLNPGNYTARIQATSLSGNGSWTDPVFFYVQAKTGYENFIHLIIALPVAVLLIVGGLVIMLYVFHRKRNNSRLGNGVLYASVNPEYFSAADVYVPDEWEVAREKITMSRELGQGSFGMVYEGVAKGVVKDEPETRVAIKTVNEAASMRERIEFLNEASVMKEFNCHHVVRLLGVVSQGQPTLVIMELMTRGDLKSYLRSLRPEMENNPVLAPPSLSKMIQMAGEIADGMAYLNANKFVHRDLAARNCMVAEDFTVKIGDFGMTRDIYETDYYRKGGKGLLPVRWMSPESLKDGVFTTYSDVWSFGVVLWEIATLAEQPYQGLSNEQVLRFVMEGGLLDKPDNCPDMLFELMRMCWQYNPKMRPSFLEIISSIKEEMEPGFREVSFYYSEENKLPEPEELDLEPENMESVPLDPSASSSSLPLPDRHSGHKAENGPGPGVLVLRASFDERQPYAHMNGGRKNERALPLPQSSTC
Sequence of EGFR (P00533 25-1210): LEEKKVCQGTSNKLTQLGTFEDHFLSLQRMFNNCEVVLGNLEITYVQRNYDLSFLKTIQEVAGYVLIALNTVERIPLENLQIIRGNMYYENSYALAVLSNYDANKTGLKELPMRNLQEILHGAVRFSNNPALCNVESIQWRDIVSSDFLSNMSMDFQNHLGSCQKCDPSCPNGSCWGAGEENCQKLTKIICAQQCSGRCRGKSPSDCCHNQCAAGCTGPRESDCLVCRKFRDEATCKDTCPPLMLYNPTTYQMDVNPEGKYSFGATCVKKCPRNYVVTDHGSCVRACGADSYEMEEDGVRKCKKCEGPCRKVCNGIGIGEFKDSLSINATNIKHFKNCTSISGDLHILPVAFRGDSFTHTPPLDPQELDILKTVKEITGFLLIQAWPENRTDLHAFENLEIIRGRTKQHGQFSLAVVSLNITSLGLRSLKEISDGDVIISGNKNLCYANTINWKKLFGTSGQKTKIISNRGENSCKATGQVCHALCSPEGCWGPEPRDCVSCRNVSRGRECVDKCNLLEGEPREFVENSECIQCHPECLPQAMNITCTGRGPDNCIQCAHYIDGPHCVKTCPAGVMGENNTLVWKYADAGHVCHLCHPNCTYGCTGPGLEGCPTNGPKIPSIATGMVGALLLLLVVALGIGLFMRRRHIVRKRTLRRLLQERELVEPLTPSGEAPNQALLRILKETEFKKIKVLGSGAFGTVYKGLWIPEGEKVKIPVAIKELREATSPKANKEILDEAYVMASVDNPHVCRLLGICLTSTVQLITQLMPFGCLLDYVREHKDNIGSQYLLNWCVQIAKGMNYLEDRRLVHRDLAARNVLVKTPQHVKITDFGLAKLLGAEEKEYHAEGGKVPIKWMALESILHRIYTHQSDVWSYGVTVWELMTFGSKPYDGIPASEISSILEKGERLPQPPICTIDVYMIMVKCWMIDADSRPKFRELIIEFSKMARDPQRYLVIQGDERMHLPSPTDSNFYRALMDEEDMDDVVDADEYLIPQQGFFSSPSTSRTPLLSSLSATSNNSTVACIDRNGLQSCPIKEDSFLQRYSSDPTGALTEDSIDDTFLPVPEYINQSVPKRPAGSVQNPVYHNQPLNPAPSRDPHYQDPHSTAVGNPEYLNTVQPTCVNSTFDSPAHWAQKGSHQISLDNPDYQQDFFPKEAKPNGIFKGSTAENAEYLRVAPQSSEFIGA
Sequence of Pyk2 (Q14289 whole entry, species assumed): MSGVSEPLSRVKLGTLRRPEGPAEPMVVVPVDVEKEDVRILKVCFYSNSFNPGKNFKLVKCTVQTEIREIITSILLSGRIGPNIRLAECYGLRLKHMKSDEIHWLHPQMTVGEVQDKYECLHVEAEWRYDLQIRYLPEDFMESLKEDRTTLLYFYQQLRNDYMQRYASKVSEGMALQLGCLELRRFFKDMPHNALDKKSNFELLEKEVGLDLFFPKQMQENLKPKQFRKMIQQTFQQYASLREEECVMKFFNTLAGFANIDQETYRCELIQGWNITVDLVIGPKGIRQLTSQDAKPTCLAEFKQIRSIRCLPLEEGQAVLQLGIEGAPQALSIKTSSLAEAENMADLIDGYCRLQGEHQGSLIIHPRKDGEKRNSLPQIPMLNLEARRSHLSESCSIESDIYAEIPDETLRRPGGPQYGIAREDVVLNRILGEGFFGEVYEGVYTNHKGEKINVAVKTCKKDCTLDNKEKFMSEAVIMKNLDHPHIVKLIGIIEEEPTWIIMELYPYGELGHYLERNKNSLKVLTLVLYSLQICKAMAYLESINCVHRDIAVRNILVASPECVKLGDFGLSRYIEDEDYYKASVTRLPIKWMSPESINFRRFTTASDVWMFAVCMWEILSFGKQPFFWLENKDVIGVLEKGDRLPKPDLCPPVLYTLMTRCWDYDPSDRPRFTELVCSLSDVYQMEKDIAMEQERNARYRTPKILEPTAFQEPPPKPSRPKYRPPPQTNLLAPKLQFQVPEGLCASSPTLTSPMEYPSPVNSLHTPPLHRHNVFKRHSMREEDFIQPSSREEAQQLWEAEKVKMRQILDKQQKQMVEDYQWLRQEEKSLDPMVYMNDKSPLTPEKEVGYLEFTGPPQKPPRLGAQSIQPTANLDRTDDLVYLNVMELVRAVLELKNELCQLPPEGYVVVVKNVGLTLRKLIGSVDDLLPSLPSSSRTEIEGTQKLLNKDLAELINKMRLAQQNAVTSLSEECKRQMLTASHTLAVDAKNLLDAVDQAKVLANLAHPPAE
T1 sequence (P09619 33-1106, species assumed): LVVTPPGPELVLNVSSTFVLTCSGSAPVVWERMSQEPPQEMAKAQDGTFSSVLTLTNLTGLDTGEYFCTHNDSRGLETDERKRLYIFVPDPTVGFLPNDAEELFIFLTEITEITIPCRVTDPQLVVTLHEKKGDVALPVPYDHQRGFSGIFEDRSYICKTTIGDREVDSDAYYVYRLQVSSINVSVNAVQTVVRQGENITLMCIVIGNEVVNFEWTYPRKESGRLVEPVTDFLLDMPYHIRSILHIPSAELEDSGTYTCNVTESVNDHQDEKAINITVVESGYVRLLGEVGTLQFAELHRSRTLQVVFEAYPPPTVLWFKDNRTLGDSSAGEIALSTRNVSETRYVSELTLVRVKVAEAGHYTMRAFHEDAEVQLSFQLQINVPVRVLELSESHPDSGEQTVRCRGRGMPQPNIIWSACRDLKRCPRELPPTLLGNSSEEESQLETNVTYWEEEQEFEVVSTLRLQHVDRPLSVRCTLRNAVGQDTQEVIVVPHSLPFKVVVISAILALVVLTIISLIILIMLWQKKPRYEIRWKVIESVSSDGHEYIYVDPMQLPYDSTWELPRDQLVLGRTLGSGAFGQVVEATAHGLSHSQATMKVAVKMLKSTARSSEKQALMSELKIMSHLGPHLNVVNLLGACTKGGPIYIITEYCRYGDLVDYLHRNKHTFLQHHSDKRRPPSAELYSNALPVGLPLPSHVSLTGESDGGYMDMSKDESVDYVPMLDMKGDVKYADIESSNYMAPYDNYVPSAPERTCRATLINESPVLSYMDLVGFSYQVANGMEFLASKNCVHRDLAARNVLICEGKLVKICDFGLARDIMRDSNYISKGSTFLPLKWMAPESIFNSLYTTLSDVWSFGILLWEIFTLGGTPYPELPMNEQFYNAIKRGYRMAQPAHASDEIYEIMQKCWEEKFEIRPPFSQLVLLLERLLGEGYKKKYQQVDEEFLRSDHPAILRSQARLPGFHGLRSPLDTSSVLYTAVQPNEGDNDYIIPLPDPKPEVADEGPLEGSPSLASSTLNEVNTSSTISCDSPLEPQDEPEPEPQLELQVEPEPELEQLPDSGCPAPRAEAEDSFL

Row | SMILES | pIC50 (PDGFR) | bio SRC, outcome of primary assay (src protein kinase; primary assay) | Pyk2, outcome of primary assay (Pyk2; primary assay) | pIC50 (EGFR) | cell IGF, outcome of primary assay (IGF-1 receptor; primary assay) | pIC50 (src protein kinase; 50% inhibition of target PTK activity) | pIC50 (Pyk2; 50% inhibition of target PTK activity, read-out: Pyk2 IC50) | cell IGF % Inh (IGF-1 receptor; concentration not given) [% Inh]
1 | COc1ccc2c(c1)/C(=C1\C(=O)Nc3ccccc31)CC2 [Compound 4, 3-(6-Methoxyindan-1-ylidene)-1,3-dihydroindol-2-one] | < 4.00 | DNH | DNH | < 4.00 | DNH | – | – | –
2 | Nc1ccc2c(c1)CC/C2=C1/C(=O)Nc2ccccc21 [Compound 6, 3-(5-Aminoindan-1-ylidene)-1,3-dihydroindol-2-one] | 5.26 | – | – | < 4.00 | – | < 4.00 | 5.09 | 96.7
